Source: ChEMBL document CHEMBL3045835, “Comparative study of conventional and microwave-assisted synthesis of some Schiff bases and their potential as antimicrobial agents” (2012)

Assays:
Format in all cases: functional
Pseudomonas fluorescens [1] = assay: Antibacterial activity against Pseudomonas fluorescens MTCC 2421 after 24 hr by broth dilution method; details: MTCC 2421, 24 h
Pseudomonas aeruginosa [2] = assay: Antibacterial activity against Pseudomonas aeruginosa MTCC 424 at 500 ug/ml after 18 hr by cup-plate method; details: MTCC 424, 18 h, read-out: DIZ
Pseudomonas aeruginosa [3] = assay: Antibacterial activity against Pseudomonas aeruginosa MTCC 424 at 100 ug/ml after 18 hr by cup-plate method; details: MTCC 424, 18 h, read-out: DIZ
Staphylococcus aureus [4] = assay: Antibacterial activity against Staphylococcus aureus MTCC 1430 at 1000 ug/ml after 18 hr by cup-plate method; details: MTCC 1430, 18 h, read-out: DIZ
Escherichia coli [5] = assay: Antibacterial activity against Escherichia coli MTCC 1573 at 200 ug/ml after 18 hr by cup-plate method; details: MTCC 1573, 18 h, read-out: DIZ
Bacillus subtilis [6] = assay: Antibacterial activity against Bacillus subtilis MTCC 441 at 100 ug/ml after 18 hr by cup plate method; details: MTCC 441, 18 h, read-out: DIZ
Escherichia coli [7] = assay: Antibacterial activity against Escherichia coli MTCC 1573 after 24 hr by broth dilution method; details: MTCC 1573, 24 h
Pseudomonas fluorescens [8] = assay: Antibacterial activity against Pseudomonas fluorescens MTCC 2421 at 200 ug/ml after 18 hr by cup-plate method; details: MTCC 2421, 18 h, read-out: DIZ
Micrococcus luteus [9] = assay: Antibacterial activity against Micrococcus luteus MTCC 1538 at 100 ug/ml after 18 hr by cup-plate method; details: MTCC 1538, 18 h, read-out: DIZ
Pseudomonas fluorescens [10] = assay: Antibacterial activity against Pseudomonas fluorescens MTCC 2421 at 100 ug/ml after 18 hr by cup-plate method; details: MTCC 2421, 18 h, read-out: DIZ
Micrococcus luteus [11] = assay: Antibacterial activity against Micrococcus luteus MTCC 1538 at 500 ug/ml after 18 hr by cup-plate method; details: MTCC 1538, 18 h, read-out: DIZ
Penicillium chrysogenum [12] = assay: Antifungal activity against Penicillium chrysogenum MTCC 161 after 24 hr by broth dilution method; details: MTCC 161, 24 h
Bacillus subtilis [13] = assay: Antibacterial activity against Bacillus subtilis MTCC 441 at 1000 ug/ml after 18 hr by cup plate method; details: MTCC 441, 18 h, read-out: DIZ
Pseudomonas aeruginosa [14] = assay: Antibacterial activity against Pseudomonas aeruginosa MTCC 424 at 1500 ug/ml after 18 hr by cup-plate method; details: MTCC 424, 18 h, read-out: DIZ
Staphylococcus aureus [15] = assay: Antibacterial activity against Staphylococcus aureus MTCC 1430 at 1500 ug/ml after 18 hr by cup-plate method; details: MTCC 1430, 18 h, read-out: DIZ
Micrococcus luteus [16] = assay: Antibacterial activity against Micrococcus luteus MTCC 1538 after 24 hr by broth dilution method; details: MTCC 1538, 24 h
Penicillium chrysogenum [17] = assay: Antifungal activity against Penicillium chrysogenum MTCC 161 at 1000 ug/ml after 18 hr by cup-plate method; details: MTCC 161, 18 h, read-out: DIZ
Pseudomonas fluorescens [18] = assay: Antibacterial activity against Pseudomonas fluorescens MTCC 2421 at 1500 ug/ml after 18 hr by cup-plate method; details: MTCC 2421, 18 h, read-out: DIZ
Bacillus subtilis [19] = assay: Antibacterial activity against Bacillus subtilis MTCC 441 at 200 ug/ml after 18 hr by cup plate method; details: MTCC 441, 18 h, read-out: DIZ
Penicillium chrysogenum [20] = assay: Antifungal activity against Penicillium chrysogenum MTCC 161 at 100 ug/ml after 18 hr by cup-plate method; details: MTCC 161, 18 h, read-out: DIZ
Pseudomonas aeruginosa [21] = assay: Antibacterial activity against Pseudomonas aeruginosa MTCC 424 at 200 ug/ml after 18 hr by cup-plate method; details: MTCC 424, 18 h, read-out: DIZ
Bacillus pumilus [22] = assay: Antibacterial activity against Bacillus pumilus MTCC 1456 at 200 ug/ml after 18 hr by cup-plate method; details: MTCC 1456, 18 h, read-out: DIZ
Bacillus pumilus [23] = assay: Antibacterial activity against Bacillus pumilus MTCC 1456 at 1000 ug/ml after 18 hr by cup-plate method; details: MTCC 1456, 18 h, read-out: DIZ
Staphylococcus aureus [24] = assay: Antibacterial activity against Staphylococcus aureus MTCC 1430 at 200 ug/ml after 18 hr by cup-plate method; details: MTCC 1430, 18 h, read-out: DIZ
Escherichia coli [25] = assay: Antibacterial activity against Escherichia coli MTCC 1573 at 500 ug/ml after 18 hr by cup-plate method; details: MTCC 1573, 18 h, read-out: DIZ
Penicillium chrysogenum [26] = assay: Antifungal activity against Penicillium chrysogenum MTCC 161 at 1500 ug/ml after 18 hr by cup-plate method; details: MTCC 161, 18 h, read-out: DIZ
Escherichia coli [27] = assay: Antibacterial activity against Escherichia coli MTCC 1573 at 1000 ug/ml after 18 hr by cup-plate method; details: MTCC 1573, 18 h, read-out: DIZ
Escherichia coli [28] = assay: Antibacterial activity against Escherichia coli MTCC 1573 at 1500 ug/ml after 18 hr by cup-plate method; details: MTCC 1573, 18 h, read-out: DIZ
Bacillus subtilis [29] = assay: Antibacterial activity against Bacillus subtilis MTCC 441 at 1500 ug/ml after 18 hr by cup plate method; details: MTCC 441, 18 h, read-out: DIZ
Staphylococcus aureus [30] = assay: Antibacterial activity against Staphylococcus aureus MTCC 1430 at 500 ug/ml after 18 hr by cup-plate method; details: MTCC 1430, 18 h, read-out: DIZ
Aspergillus niger [31] = assay: Antifungal activity against Aspergillus niger MTCC 2546 at 1500 ug/ml after 18 hr by cup-plate method; details: MTCC 2546, 18 h, read-out: DIZ
Pseudomonas aeruginosa [32] = assay: Antibacterial activity against Pseudomonas aeruginosa MTCC 424 after 24 hr by broth dilution method; details: MTCC 424, 24 h
Pseudomonas fluorescens [33] = assay: Antibacterial activity against Pseudomonas fluorescens MTCC 2421 at 1000 ug/ml after 18 hr by cup-plate method; details: MTCC 2421, 18 h, read-out: DIZ
Pseudomonas fluorescens [34] = assay: Antibacterial activity against Pseudomonas fluorescens MTCC 2421 at 500 ug/ml after 18 hr by cup-plate method; details: MTCC 2421, 18 h, read-out: DIZ
Bacillus pumilus [35] = assay: Antibacterial activity against Bacillus pumilus MTCC 1456 at 100 ug/ml after 18 hr by cup-plate method; details: MTCC 1456, 18 h, read-out: DIZ
Bacillus subtilis [36] = assay: Antibacterial activity against Bacillus subtilis MTCC 441 after 24 hr by broth dilution method; details: MTCC 441, 24 h
Bacillus pumilus [37] = assay: Antibacterial activity against Bacillus pumilus MTCC 1456 at 1500 ug/ml after 18 hr by cup-plate method; details: MTCC 1456, 18 h, read-out: DIZ
Aspergillus niger [38] = assay: Antifungal activity against Aspergillus niger MTCC 2546 at 500 ug/ml after 18 hr by cup-plate method; details: MTCC 2546, 18 h, read-out: DIZ
Micrococcus luteus [39] = assay: Antibacterial activity against Micrococcus luteus MTCC 1538 at 200 ug/ml after 18 hr by cup-plate method; details: MTCC 1538, 18 h, read-out: DIZ
Penicillium chrysogenum [40] = assay: Antifungal activity against Penicillium chrysogenum MTCC 161 at 500 ug/ml after 18 hr by cup-plate method; details: MTCC 161, 18 h, read-out: DIZ
Aspergillus niger [41] = assay: Antifungal activity against Aspergillus niger MTCC 2546 after 24 hr by broth dilution method; details: MTCC 2546, 24 h
Aspergillus niger [42] = assay: Antifungal activity against Aspergillus niger MTCC 2546 at 1000 ug/ml after 18 hr by cup-plate method; details: MTCC 2546, 18 h, read-out: DIZ
Aspergillus niger [43] = assay: Antifungal activity against Aspergillus niger MTCC 2546 at 100 ug/ml after 18 hr by cup-plate method; details: MTCC 2546, 18 h, read-out: DIZ
Micrococcus luteus [44] = assay: Antibacterial activity against Micrococcus luteus MTCC 1538 at 1000 ug/ml after 18 hr by cup-plate method; details: MTCC 1538, 18 h, read-out: DIZ
Bacillus pumilus [45] = assay: Antibacterial activity against Bacillus pumilus MTCC 1456 at 500 ug/ml after 18 hr by cup-plate method; details: MTCC 1456, 18 h, read-out: DIZ
Aspergillus niger [46] = assay: Antifungal activity against Aspergillus niger MTCC 2546 at 200 ug/ml after 18 hr by cup-plate method; details: MTCC 2546, 18 h, read-out: DIZ
Escherichia coli [47] = assay: Antibacterial activity against Escherichia coli MTCC 1573 at 100 ug/ml after 18 hr by cup-plate method; details: MTCC 1573, 18 h, read-out: DIZ
Bacillus subtilis [48] = assay: Antibacterial activity against Bacillus subtilis MTCC 441 at 500 ug/ml after 18 hr by cup plate method; details: MTCC 441, 18 h, read-out: DIZ
Micrococcus luteus [49] = assay: Antibacterial activity against Micrococcus luteus MTCC 1538 at 1500 ug/ml after 18 hr by cup-plate method; details: MTCC 1538, 18 h, read-out: DIZ
Bacillus pumilus [50] = assay: Antibacterial activity against Bacillus pumilus MTCC 1456 after 24 hr by broth dilution method; details: MTCC 1456, 24 h
Pseudomonas aeruginosa [51] = assay: Antibacterial activity against Pseudomonas aeruginosa MTCC 424 at 1000 ug/ml after 18 hr by cup-plate method; details: MTCC 424, 18 h, read-out: DIZ
Staphylococcus aureus [52] = assay: Antibacterial activity against Staphylococcus aureus MTCC 1430 at 100 ug/ml after 18 hr by cup-plate method; details: MTCC 1430, 18 h, read-out: DIZ
Penicillium chrysogenum [53] = assay: Antifungal activity against Penicillium chrysogenum MTCC 161 at 200 ug/ml after 18 hr by cup-plate method; details: MTCC 161, 18 h, read-out: DIZ
Staphylococcus aureus [54] = assay: Antibacterial activity against Staphylococcus aureus MTCC 1430 after 24 hr by broth dilution method; details: MTCC 1430, 24 h

C(=N/c1nc[nH]n1)/c1cccc2ccccc12
20 mm: zone of inhibition at 500 µg/mL (Pseudomonas aeruginosa [2]) | zone of inhibition at 1500 µg/mL (Bacillus pumilus [37]) | zone of inhibition at 500 µg/mL (Penicillium chrysogenum [40]) | zone of inhibition at 1000 µg/mL (Micrococcus luteus [44])
19 mm: zone of inhibition at 1000 µg/mL (Bacillus subtilis [13]) | zone of inhibition at 500 µg/mL (Escherichia coli [25]) | zone of inhibition at 500 µg/mL (Pseudomonas fluorescens [34])
300 µg/mL: MIC (Pseudomonas fluorescens [1]) | MIC (Micrococcus luteus [16]) | MIC (Bacillus subtilis [36]) | MIC (Bacillus pumilus [50])
21 mm: zone of inhibition at 1000 µg/mL (Penicillium chrysogenum [17]) | zone of inhibition at 1500 µg/mL (Bacillus subtilis [29]) | zone of inhibition at 1000 µg/mL (Pseudomonas fluorescens [33]) | zone of inhibition at 1000 µg/mL (Aspergillus niger [42])
15 mm: zone of inhibition at 100 µg/mL (Bacillus subtilis [6]) | zone of inhibition at 200 µg/mL (Micrococcus luteus [39])
17 mm: zone of inhibition at 100 µg/mL (Pseudomonas aeruginosa [3]) | zone of inhibition at 100 µg/mL (Penicillium chrysogenum [20]) | zone of inhibition at 500 µg/mL (Bacillus pumilus [45]) | zone of inhibition at 200 µg/mL (Aspergillus niger [46]) | zone of inhibition at 100 µg/mL (Escherichia coli [47])
18 mm: zone of inhibition at 200 µg/mL (Escherichia coli [5]) | zone of inhibition at 500 µg/mL (Micrococcus luteus [11]) | zone of inhibition at 1500 µg/mL (Staphylococcus aureus [15]) | zone of inhibition at 200 µg/mL (Pseudomonas aeruginosa [21]) | zone of inhibition at 1000 µg/mL (Bacillus pumilus [23]) | zone of inhibition at 500 µg/mL (Aspergillus niger [38]) | zone of inhibition at 500 µg/mL (Bacillus subtilis [48]) | zone of inhibition at 200 µg/mL (Penicillium chrysogenum [53])
22 mm: zone of inhibition at 1500 µg/mL (Aspergillus niger [31]) | zone of inhibition at 1000 µg/mL (Pseudomonas aeruginosa [51])
13 mm: zone of inhibition at 200 µg/mL (Staphylococcus aureus [24]) | zone of inhibition at 100 µg/mL (Bacillus pumilus [35])
50 µg/mL: MIC (Escherichia coli [7]) | MIC (Penicillium chrysogenum [12]) | MIC (Aspergillus niger [41])
25 mm: zone of inhibition at 1500 µg/mL (Escherichia coli [28])
16 mm: zone of inhibition at 1000 µg/mL (Staphylococcus aureus [4]) | zone of inhibition at 200 µg/mL (Pseudomonas fluorescens [8]) | zone of inhibition at 200 µg/mL (Bacillus subtilis [19]) | zone of inhibition at 200 µg/mL (Bacillus pumilus [22]) | zone of inhibition at 100 µg/mL (Aspergillus niger [43])
12 mm: zone of inhibition at 100 µg/mL (Micrococcus luteus [9]) | zone of inhibition at 100 µg/mL (Staphylococcus aureus [52])
400 µg/mL: MIC (Staphylococcus aureus [54])
24 mm: zone of inhibition at 1500 µg/mL (Pseudomonas aeruginosa [14]) | zone of inhibition at 1500 µg/mL (Penicillium chrysogenum [26])
23 mm: zone of inhibition at 1500 µg/mL (Pseudomonas fluorescens [18]) | zone of inhibition at 1000 µg/mL (Escherichia coli [27]) | zone of inhibition at 1500 µg/mL (Micrococcus luteus [49])
200 µg/mL: MIC (Pseudomonas aeruginosa [32])
14 mm: zone of inhibition at 100 µg/mL (Pseudomonas fluorescens [10]) | zone of inhibition at 500 µg/mL (Staphylococcus aureus [30])
